The results in this text go back to US20130012472A1, “COMPOSITION AND METHODS OF INHIBITING GASTROINTESTINAL PATHOGEN INFECTION” (Boston College, priority 2011, published 2013).

For one test, the system named is CD14. Description: CD14 expression on IECs (RT-PCR, FACS). Type of test: cell-based, human. To be noted: TFiLNO-treated IECs; FIGS. 7B and 7C. On the procedure: IEC cells (e.g., T84 cells) were treated with HMOS (5 mg/mL) prepared as described above for 48 hours. Cells not treated by HMOS were used as a negative control. Total RNAs were purified from the IEC cells and RT-PCR was performed following routine methods to determine the expression levels of genes of interest, including those shown in FIG. 7B. GADPH was used as an internal control. The relative gene expression levels were determined by Delta CT Method. T84 cells treated with or without HMOS were incubated with PE-conjugated mouse anti-human CD14 Mabs. PE-conjugated isotype-matched (IgG1) antibodies were used as controls. Data respecting 20,000 live cells from each sample were collected and subjected to FACS analysis following routine procedures.

In test [1] the test system is IL-8. Description: LPS-stimulated IL-8 secretion by T84 cells in the absence of ETEC (ELISA). Type of test: cell-based. Particulars: TFiLNO 30 pg/ml, 1 h at 37° C., FIG. 7A. The protocol:
(§1) Levels of proinflammatory factors (IL-8, IL-6, TNF-α, and MCP-1) in the culture supernatants of the IECs were measured using ELISA kits from R&D following manufacturer's protocols.
To examine the effect of TFiLNO on IL-8 production, this oligosaccharide (30 pg/ml) was incubated with T84 cells in the absence of ETEC for 1 h at 37° C. IL-8 secretion to the culture medium was determined by ELISA. […] See also FIGS. 7B and 7C.
For orientation: In an ELISA, binding on a coated surface is turned into a signal by an enzyme label.

Test [2] has as its system ETEC. Description: Wash-out experiments (IECs pre-incubated with TFiLNO, washed, then ETEC invasion). Type of test: cell-based, Escherichia coli. Particulars: IECs incubated 48 hours with 30 pg/mL TFiLNO, washed 6 times with PBS; FIG. 6C. On the procedure:
IECs were grown in 24-well tissue culture plates (Corning life Sciences Inc, MA) at 5×10^4 cells/well in an antibiotic free medium for 48 hours. The culture medium was then replaced with a fresh medium containing 30 pg/mL TFiLNO. The IECs were further incubated at 37° C. for 48 hours. Supernatants were discarded and cells were washed 6 times with PBS. The cells were then incubated in a fresh medium free of TFiLNO and contains ETEC (10^8). After 1 hour incubation, extracellular bacteria were killed by gentamycin. Invaded ETEC were measured as described previously.

For test [3], the system named is ETEC. Description: Pre-incubation assay (ETEC pre-incubated with TFiLNO, then invasion of T84 cells). Format: cell-based, Escherichia coli. Particulars: ETEC pre-incubated 2 h with TFiLNO 30 pg/mL, then T84 cells 1 hour; FIG. 6B. The protocol:
ETEC cells in mid-logarithmic growth phase were re-suspended in PBS (pH 7.2) at a concentration of 2×10^8 cells/ml. The suspension was mixed with an equal volume of PBS in the presence or absence of TFiLNO (30 pg/mL), and incubated in U-bottom 96-well plates at room temperature for 2 h with brief mixing every 15 min. At the end of the incubation, the ETEC cells were co-incubated with T84 cells for 1 hour at 37° C. After extracellular bacteria were killed by gentamycin, invaded ETEC were measured as described above.

The next test deals with ETEC H10407. Description: Bacteria invasion assay (adherence and invasion of ETEC to IECs). Type of test: cell-based, Escherichia coli. On the procedure:
(§2) Intestinal epithelial cells (IECs) such as HCT8, T84, Caco2, H4, and FHs74 cells, were cultured in 24-well tissue culture plates (Corning life Sciences Inc, MA) at 5×10^4 cells/well in antibiotic free media for 48 hours. The IEC cells, with or without treatment of HMOS or TFiLNO, were incubated with a suspension of ETEC H10407 cells (10^5-10^9 cfu) for 1 h at 37° C. […] gentamicin was then added to the culture to kill any extracellular bacteria cells. Cell lysis was performed in 500 μl of 0.5% Triton X-100 (Sigma, Mo.) for 30 minutes at room temperature. The cell lysates were plated on difco agar plates (antibiotic free) at a proper dilution of 500. The total number of cell-associated bacteria was determined as the number of bacteria in IEC lysate immediately after infection. The number of invaded bacteria was determined as those detected in IEC cell lysate prepared from IECs treated with gentamycin for 1 hour after bacterial infection. The number of bacteria adhered to IEC cells was calculated as follows: (The total number of cell-associated bacteria)−(The number of invaded bacteria). All of the adhesion and invasion assays were performed in duplicate in at least three independent experiments.

Test [4] relates to IL-8. Description: ELISA of IL-8 secretion by ETEC-infected IECs. Format: cell-based. Particulars: for IL-8 secretion induced by ETEC invasion: ETEC-infected IECs with inhibitors, FIGS. 3D and 3E. On the procedure:
as §2, §1

For test [5], the system named is ETEC. Description: Bacteria killing assay. Format: cell-based, Escherichia coli. Particulars: TFiLNO 30 pg/ml; FIG. 6A.

As to “Trifucosyl(1,2-1,2-1,3)-lacto-N-octoase [TFiLNO]”, the “CD14 expression on IECs” value in the test with CD14 is reported as “suppression”. In addition, in the test with IL-8 [1], the “IL-8 secretion stimulated by LPS” value was “directly inhibited”. The “inhibitory activity against ETEC invasion after washing off preincubated TFiLNO” value with ETEC [2] is recorded as “did not affect”. Also, the “invasion of ETEC after pre-incubation of ETEC with TFiLNO” value in the test with ETEC [3] is given as “could not be further inhibited”. Moreover, in the test with ETEC H10407 (TFiLNO 30 pg/ml, FIG. 5A), the “adherence of ETEC to IEC cells” value was “inhibit”. In the test with ETEC H10407 (TFiLNO 30 pg/ml, FIG. 5B), the “invasion of ETEC to IEC cells” value was “inhibit”. Also, the “secretion of IL-8 by the treated IEC cells” value in the test on IL-8 [4] (TFiLNO 30 pg/ml, ETEC-infected IEC cells, over time, FIG. 5C) was “significantly reduced”. Further, in the test on ETEC [5], the “killing of ETEC” value is on record as “did not kill”.

For the compound polymycin-B, the “IL-8 secretion induced by ETEC invasion” value in the test on IL-8 [4] is recorded as “reduced”.

For `C=C1[C@@H](C)[C@H]2[C@H](Cc3ccccc3)NC(=O)[C@]23[C@H](OC(C)=O)/C=C/[C@@](C)(O)C(=O)[C@@H](C)C/C=C/[C@H]3[C@@H]1O` [cytochalasin D, reference compound], the “ETEC invasion of IEC cells” value in the test on ETEC H10407 (cytochalasin D, FIG. 3D) was “Inhibition of invasion”. Besides, the “IL-8 secretion induced by ETEC invasion” value with IL-8 [4] is recorded as “inhibited”.
